Results as given in PubChem BioAssay AID248 (DTP/NCI, 2004).
Toxic doses and inconclusive results are not listed. No stated cut-off is given here; in the data, active means T/C of 150% or more; inactive means T/C below 125%.

Test system: L1210 leukemia ip in BDF1 mice, survival T/C
Experiment: NCI In Vivo Anticancer Drug Screen. Data for tumor model L1210 Leukemia (intraperitoneal) in B6D2F1 (BDF1) mice
Conditions: endpoint: mean survival time, higher = longer survival
Outline: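 Tumor was transplanted into mice, which were then dosed with test compound or vehicle alone. Survival was recorded for each group, and the treated figure was expressed relative to the control figure.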

[1] = dose: 100.0 mg/kg/injection, schedule: Q01DX001 (ip), vehicle: carboxymethylcellulose (CMC)
[2] = dose: 200.0 mg/kg/injection, schedule: Q01DX001 (ip), vehicle: carboxymethylcellulose (CMC)
[3] = dose: 400.0 mg/kg/injection, schedule: Q01DX001 (ip), vehicle: carboxymethylcellulose (CMC)
[4] = dose: 50.0 mg/kg/injection, schedule: Q01DX009 (ip), vehicle: Klucel (hydroxypropylcellulose) (HPC)
[5] = dose: 100.0 mg/kg/injection, schedule: Q01DX009 (ip), vehicle: Klucel (hydroxypropylcellulose) (HPC)
[6] = dose: 200.0 mg/kg/injection, schedule: Q01DX009 (ip), vehicle: Klucel (hydroxypropylcellulose) (HPC)
[7] = dose: 100.0 mg/kg/injection, schedule: Q01DX009 (ip), vehicle: saline with Tween-80
[8] = dose: 200.0 mg/kg/injection, schedule: Q01DX009 (ip), vehicle: saline with Tween-80
[9] = dose: 400.0 mg/kg/injection, schedule: Q01DX009 (ip), vehicle: saline with Tween-80
[10] = dose: 100.0 mg/kg/injection, schedule: Q01DX001 (ip), vehicle: Klucel (hydroxypropylcellulose) (HPC)
[11] = dose: 200.0 mg/kg/injection, schedule: Q01DX001 (ip), vehicle: Klucel (hydroxypropylcellulose) (HPC)
[12] = dose: 400.0 mg/kg/injection, schedule: Q01DX001 (ip), vehicle: Klucel (hydroxypropylcellulose) (HPC)
[13] = dose: 100.0 mg/kg/injection, schedule: Q01DX001 (ip), vehicle: saline
[14] = dose: 200.0 mg/kg/injection, schedule: Q01DX001 (ip), vehicle: saline
[15] = dose: 400.0 mg/kg/injection, schedule: Q01DX001 (ip), vehicle: saline
[16] = dose: 50.0 mg/kg/injection, schedule: Q01DX009 (ip), vehicle: saline with Tween-80
[17] = dose: 100.0 mg/kg/injection, schedule: Q04DX003 (ip), vehicle: saline with Tween-80
[18] = dose: 200.0 mg/kg/injection, schedule: Q04DX003 (ip), vehicle: saline with Tween-80
[19] = dose: 100.0 mg/kg/injection, schedule: Q04DX003 (ip), vehicle: Klucel (hydroxypropylcellulose) (HPC)
[20] = dose: 200.0 mg/kg/injection, schedule: Q04DX003 (ip), vehicle: Klucel (hydroxypropylcellulose) (HPC)
[21] = dose: 100.0 mg/kg/injection, schedule: Q04DX002 (ip), vehicle: Klucel (hydroxypropylcellulose) (HPC)
[22] = dose: 200.0 mg/kg/injection, schedule: Q04DX002 (ip), vehicle: Klucel (hydroxypropylcellulose) (HPC)
[23] = dose: 400.0 mg/kg/injection, schedule: Q04DX002 (ip), vehicle: Klucel (hydroxypropylcellulose) (HPC)
[24] = dose: 400.0 mg/kg/injection, schedule: Q04DX003 (ip), vehicle: Klucel (hydroxypropylcellulose) (HPC)
[25] = dose: 400.0 mg/kg/injection, schedule: Q04DX003 (ip), vehicle: saline with Tween-80

Measured: T/C

Oc1cccc(/C=N/Nc2nnc(N/N=C/c3cccc(O)c3)c3ccccc23)c1
inactive: dose: 50.0 mg/kg/injection, schedule: Q01DX001 (ip), vehicle: carboxymethylcellulose (CMC) 108 % of control | [1] 101 % of control | [2] 98 % of control | [3] 96 % of control

O=S1(=O)CC23CC=CCC2(CC=CC3)C1 (configuration not stated)
inactive: [4] 100 % of control | [5] 97 % of control | [6] 96 % of control

CCOC(=O)c1ccc(N(CC(=O)CN=[N+]=[N-])S(=O)(=O)c2ccc(C)cc2)cc1
inactive: [7] 96 % of control | [8] 96 % of control | [9] 89 % of control

CN(C)c1c(Cl)cc([N+](=O)[O-])cc1Cl
inactive: [10] 97 % of control | [11] 95 % of control | [12] 94 % of control

Nc1cc2c(cc1Br)[nH]c(=O)c1ccccc12
inactive: [1] 98 % of control | [2] 96 % of control | [3] 93 % of control

Cn1c(=O)c2c(nc(CCCCCCCc3nc4c(c(=O)n(C)c(=O)n4C)n3C)n2C)n(C)c1=O
inactive: [13] 98 % of control | [14] 98 % of control | [15] 98 % of control

C(=NCCCN1CCN(CCCN=Cc2ccc3c(c2)OCO3)CC1)c1ccc2c(c1)OCO2
inactive: dose: 25.0 mg/kg/injection, schedule: Q01DX Z (ip), vehicle: carboxymethylcellulose (CMC) 103 % of control | dose: 50.0 mg/kg/injection, schedule: Q01DX Z (ip), vehicle: carboxymethylcellulose (CMC) 109 % of control | dose: 100.0 mg/kg/injection, schedule: Q01DX Z (ip), vehicle: carboxymethylcellulose (CMC) 100 % of control | dose: 200.0 mg/kg/injection, schedule: Q01DX Z (ip), vehicle: carboxymethylcellulose (CMC) 97 % of control

Cc1ccccc1Nc1n[nH]c(=S)s1
inactive: [16] 94 % of control | [7] 101 % of control | [17] 97 % of control | [8] 97 % of control | [18] 95 % of control

COc1ccc(/C(=N/Nc2ccccc2)C(C)C(O)(C(F)(F)F)C(F)(F)F)cc1 (configuration not stated)
inactive: [4] 91 % of control | [5] 92 % of control | [19] 98 % of control | [6] 89 % of control | [20] 90 % of control

CCOC(=O)C(=O)C1C(=O)C(=O)C(c2ccccc2)C1=O (configuration not stated)
inactive: dose: 75.0 mg/kg/injection, schedule: Q01DX001 (ip), vehicle: carboxymethylcellulose (CMC) 104 % of control | dose: 150.0 mg/kg/injection, schedule: Q01DX001 (ip), vehicle: carboxymethylcellulose (CMC) 100 % of control | dose: 300.0 mg/kg/injection, schedule: Q01DX001 (ip), vehicle: carboxymethylcellulose (CMC) 105 % of control

CC(C)=CCc1ccc(Cl)cc1
inactive: [16] 94 % of control | [7] 105 % of control | [8] 102 % of control

O=C(/C=C/c1ccccc1)c1ccccc1
inactive: [10] 98 % of control | [21] 105 % of control | [19] 100 % of control | [11] 99 % of control | [22] 105 % of control | [20] 104 % of control | [12] 94 % of control | [23] 94 % of control | [24] 98 % of control

C=C(C)C1CCCC(Cc2cccc3c(Cl)cccc23)C1 (configuration not stated)
inactive: dose: 100.0 mg/kg/injection, schedule: Q01DX001 (ip), vehicle: gum acacia 97 % of control | dose: 200.0 mg/kg/injection, schedule: Q01DX001 (ip), vehicle: gum acacia 94 % of control | dose: 400.0 mg/kg/injection, schedule: Q01DX001 (ip), vehicle: gum acacia 99 % of control

CN(C)CC1CCCCC1=O (configuration not stated)
inactive: [7] 97 % of control | [19] 102 % of control | dose: 100.0 mg/kg/injection, schedule: Q04DX003 (ip), vehicle: saline 103 % of control | [8] 96 % of control | [20] 102 % of control | dose: 200.0 mg/kg/injection, schedule: Q04DX003 (ip), vehicle: saline 110 % of control | [24] 97 % of control | dose: 400.0 mg/kg/injection, schedule: Q04DX003 (ip), vehicle: saline 103 % of control

CCOP(=O)(Oc1ccc([N+](=O)[O-])cc1)c1cccc(Cl)c1 (configuration not stated)
inactive: dose: 5.0 mg/kg/injection, schedule: Q01DX001 (ip), vehicle: saline 102 % of control | dose: 10.0 mg/kg/injection, schedule: Q01DX001 (ip), vehicle: saline 111 % of control

N/C(=N\O)c1c(Br)n(C2OC(CO)C(O)C2O)c2ncnc(N)c12 (configuration not stated)
inactive: [13] 98 % of control | [14] 97 % of control | [15] 106 % of control

O=[N+]([O-])C(c1ccccc1)C(C/C(=N/O)c1ccccc1)c1ccccc1 (configuration not stated)
inactive: [21] 100 % of control | [22] 92 % of control | [23] 96 % of control

O=C(O)c1ccc[n+](Cc2ccccc2)c1
inactive: dose: 75.0 mg/kg/injection, schedule: Q04DX003 (ip), vehicle: saline 90 % of control | dose: 150.0 mg/kg/injection, schedule: Q04DX003 (ip), vehicle: saline 97 % of control | dose: 300.0 mg/kg/injection, schedule: Q04DX003 (ip), vehicle: saline 94 % of control

NP(N)(=O)c1ccccc1
inactive: [17] 107 % of control | [18] 118 % of control | [25] 105 % of control

COc1cc(/C=C/C(=O)O)cc(Br)c1O
inactive: [19] 104 % of control | [20] 101 % of control | [24] 103 % of control

Cc1cc(OCC(=O)O)c(Cl)cc1Cl
inactive: [16] 92 % of control | [7] 99 % of control

CCc1cccc[n+]1Cc1ccccc1
inactive: dose: 50.0 mg/kg/injection, schedule: Q01DX009 (ip), vehicle: saline 90 % of control

CCCCCCCCCCCCCCCCC(=O)O.[Pb]
inactive: dose: 75.0 mg/kg/injection, schedule: Q01DX001 (ip), vehicle: other 94 % of control | dose: 150.0 mg/kg/injection, schedule: Q01DX001 (ip), vehicle: other 92 % of control | dose: 300.0 mg/kg/injection, schedule: Q01DX001 (ip), vehicle: other 92 % of control

O=C(Oc1c(Cl)cc(Cl)cc1Cl)c1ccccc1
inactive: [5] 93 % of control | [7] 90 % of control | [19] 93 % of control | [17] 98 % of control | [6] 96 % of control | [8] 91 % of control | [20] 96 % of control | [18] 98 % of control | dose: 400.0 mg/kg/injection, schedule: Q01DX009 (ip), vehicle: Klucel (hydroxypropylcellulose) (HPC) 98 % of control | [9] 106 % of control | [24] 98 % of control | [25] 96 % of control

COC(=O)C1C2OC(C(Br)C2Br)C1C(=O)O (configuration not stated)
inactive: [17] 100 % of control | [18] 98 % of control | [25] 96 % of control
